Assay results from PubChem BioAssay AID280 (DTP/NCI, 2004).
Where “and” joins values, the source holds several entries; their conditions need not be identical. Identical values can stand only once. Inconclusive results and toxic doses are left out. The calls were made as follows: active = survival T/C of 150% or more; inactive = T/C below 125% in these data.

Tested on: nude mice, LOX melanoma ip, survival T/C
Assay: NCI In Vivo Anticancer Drug Screen. Data for tumor model Human Amelanotic Melanoma (LOX) (intraperitoneal) in NU/NU BALB/C (nude) mice
Settings: endpoint: median survival time, higher = longer survival
Method: The antitumor activity of compounds was measured in mice bearing transplantable tumors. Survival or tumor size were measured and the results are expressed as the measurement made in the treated group (T) divided by the measurement made in the vehicle treated control group (C). The tumor model used in this assay is Human Amelanotic Melanoma (LOX) (intraperitoneal) in NU/NU BALB/C (nude) mice

[1] = dose: 75.0 mg/kg/injection, schedule: Q04DX003 (ip), vehicle: Klucel (hydroxypropylcellulose) (HPC)

Measured: T/C

O=NNc1cnccn1
active: dose: 16.9 mg/kg/injection, schedule: Q01DX009 (ip), vehicle: other 153 % of control | dose: 25.3 mg/kg/injection, schedule: Q01DX009 (ip), vehicle: other 175 % of control | dose: 25.3 mg/kg/injection, schedule: Q03HX008 (ip), vehicle: other 159 % of control | dose: 29.7 mg/kg/injection, schedule: Q04DX003 (ip), vehicle: water 201 % of control | dose: 38.0 mg/kg/injection, schedule: Q01DX005 (iv), vehicle: other 153 % of control | dose: 38.0 mg/kg/injection, schedule: Q01DX009 (ip), vehicle: other 189 % of control | dose: 44.5 mg/kg/injection, schedule: Q04DX003 (ip), vehicle: water 180 % of control and 189 % of control | dose: 50.0 mg/kg/injection, schedule: Q04DX003 (ip), vehicle: water 156 % of control | dose: 57.0 mg/kg/injection, schedule: Q01DX005 (iv), vehicle: other 191 % of control | dose: 57.0 mg/kg/injection, schedule: Q01DX009 (ip), vehicle: other 220 % of control | dose: 57.0 mg/kg/injection, schedule: Q04DX003 (ip), vehicle: other 170 % of control | dose: 57.0 mg/kg/injection, schedule: Q04DX003 (iv), vehicle: other 154 % of control | dose: 66.7 mg/kg/injection, schedule: Q04DX003 (ip), vehicle: water 200 % of control and 221 % of control | dose: 85.4 mg/kg/injection, schedule: Q04DX003 (ip), vehicle: other 185 % of control | dose: 85.4 mg/kg/injection, schedule: Q04DX003 (iv), vehicle: other 159 % of control | dose: 85.4 mg/kg/injection, schedule: Q08DX002 (ip), vehicle: other 150 % of control | dose: 100.0 mg/kg/injection, schedule: Q04DX003 (ip), vehicle: water 232 % of control and 250 % of control and 301 % of control | dose: 128.0 mg/kg/injection, schedule: Q01DX001 (ip), vehicle: other 170 % of control | dose: 128.0 mg/kg/injection, schedule: Q04DX003 (ip), vehicle: other 170 % of control | dose: 128.0 mg/kg/injection, schedule: Q08DX002 (ip), vehicle: other 180 % of control | dose: 150.0 mg/kg/injection, schedule: Q04DX003 (ip), vehicle: water 248 % of control and 296 % of control | dose: 192.0 mg/kg/injection, schedule: Q01DX001 (ip), vehicle: other 180 % of control | dose: 192.0 mg/kg/injection, schedule: Q08DX002 (ip), vehicle: other 300 % of control
inactive: dose: 11.3 mg/kg/injection, schedule: Q01DX009 (ip), vehicle: other 110 % of control | dose: 11.3 mg/kg/injection, schedule: Q03HX008 (ip), vehicle: other 117 % of control | dose: 12.5 mg/kg/injection, schedule: Q04DX003 (ip), vehicle: water 110 % of control | dose: 16.9 mg/kg/injection, schedule: Q01DX005 (iv), vehicle: other 97 % of control | dose: 38.0 mg/kg/injection, schedule: Q04DX003 (iv), vehicle: other 123 % of control | dose: 57.0 mg/kg/injection, schedule: Q01DX001 (ip), vehicle: other 116 % of control | dose: 57.0 mg/kg/injection, schedule: Q01DX001 (iv), vehicle: other 115 % of control | dose: 85.4 mg/kg/injection, schedule: Q01DX001 (iv), vehicle: other 120 % of control | dose: 128.0 mg/kg/injection, schedule: Q04DX003 (iv), vehicle: other 91 % of control | dose: 200.0 mg/kg/injection, schedule: Q04DX003 (ip), vehicle: water 121 % of control

O=[N+]([O-])c1ccc([I+]c2ccccc2)cc1
inactive: dose: 9.38 mg/kg/injection, schedule: Q04DX003 (ip), vehicle: Klucel (hydroxypropylcellulose) (HPC) 121 % of control | dose: 16.2 mg/kg/injection, schedule: Q04DX003 (ip), vehicle: Klucel (hydroxypropylcellulose) (HPC) 115 % of control | dose: 27.0 mg/kg/injection, schedule: Q04DX003 (ip), vehicle: Klucel (hydroxypropylcellulose) (HPC) 114 % of control and 101 % of control | dose: 37.5 mg/kg/injection, schedule: Q04DX003 (ip), vehicle: Klucel (hydroxypropylcellulose) (HPC) 108 % of control | dose: 45.0 mg/kg/injection, schedule: Q04DX003 (ip), vehicle: Klucel (hydroxypropylcellulose) (HPC) 105 % of control and 120 % of control | [1] 93 % of control

CC(C)(C)NC(C1=CC(C)(C)c2ccccc2C1=O)c1ccccc1 (stereo not given)
inactive: dose: 25.0 mg/kg/injection, schedule: Q04DX003 (ip), vehicle: Klucel (hydroxypropylcellulose) (HPC) 107 % of control | dose: 50.0 mg/kg/injection, schedule: Q04DX003 (ip), vehicle: Klucel (hydroxypropylcellulose) (HPC) 113 % of control | dose: 100.0 mg/kg/injection, schedule: Q04DX003 (ip), vehicle: Klucel (hydroxypropylcellulose) (HPC) 110 % of control | dose: 200.0 mg/kg/injection, schedule: Q04DX003 (ip), vehicle: Klucel (hydroxypropylcellulose) (HPC) 118 % of control

COc1ccc(C[C@@H]2NC[C@@H](O)[C@@H]2OC(C)=O)cc1
inactive: dose: 37.5 mg/kg/injection, schedule: Q04DX003 (ip), vehicle: saline with Tween-80 101 % of control | dose: 75.0 mg/kg/injection, schedule: Q04DX003 (ip), vehicle: saline with Tween-80 101 % of control | dose: 150.0 mg/kg/injection, schedule: Q04DX003 (ip), vehicle: saline with Tween-80 103 % of control | dose: 300.0 mg/kg/injection, schedule: Q04DX003 (ip), vehicle: saline with Tween-80 101 % of control

CCC(c1ccc(O)cc1)C(CC)c1ccc(OCCN)cc1 (stereo not given)
inactive: dose: 62.5 mg/kg/injection, schedule: Q04DX003 (ip), vehicle: saline with Tween-80 88 % of control | dose: 125.0 mg/kg/injection, schedule: Q04DX003 (ip), vehicle: saline with Tween-80 104 % of control | dose: 250.0 mg/kg/injection, schedule: Q04DX003 (ip), vehicle: saline with Tween-80 93 % of control | dose: 500.0 mg/kg/injection, schedule: Q04DX003 (ip), vehicle: saline with Tween-80 92 % of control | dose: 1000.0 mg/kg/injection, schedule: Q04DX003 (ip), vehicle: saline with Tween-80 93 % of control

Cn1cc(C2NC(=O)c3ccccc3N2)c2ccccc21 (stereo not given)
inactive: [1] 110 % of control and 100 % of control | dose: 150.0 mg/kg/injection, schedule: Q04DX003 (ip), vehicle: Klucel (hydroxypropylcellulose) (HPC) 106 % of control and 122 % of control | dose: 300.0 mg/kg/injection, schedule: Q04DX003 (ip), vehicle: Klucel (hydroxypropylcellulose) (HPC) 110 % of control and 94 % of control

COc1cc2c(c(OC)c1OC)-c1ccc(SC)c(=O)cc1[C@@H](NC(C)=O)CC2
active: dose: 0.25 mg/kg/injection, schedule: Q04DX003 (ip), vehicle: Klucel (hydroxypropylcellulose) (HPC) 163 % of control | dose: 0.5 mg/kg/injection, schedule: Q04DX003 (ip), vehicle: Klucel (hydroxypropylcellulose) (HPC) 172 % of control and 196 % of control | dose: 0.82 mg/kg/injection, schedule: Q04DX003 (ip), vehicle: Klucel (hydroxypropylcellulose) (HPC) 173 % of control | dose: 1.38 mg/kg/injection, schedule: Q04DX003 (ip), vehicle: Klucel (hydroxypropylcellulose) (HPC) 193 % of control

Cc1ccc(NN=O)nc1
inactive: dose: 2.5 mg/kg/injection, schedule: Q04DX003 (ip), vehicle: water 105 % of control | dose: 5.0 mg/kg/injection, schedule: Q04DX003 (ip), vehicle: water 114 % of control | dose: 10.0 mg/kg/injection, schedule: Q04DX003 (ip), vehicle: water 115 % of control

C=CC1(C)CC(=O)C2(O)C(C)(O1)C(OC(C)=O)C(O)C1C(C)(C)CCC(O)C12C (stereo not given)
inactive: dose: 8.0 mg/kg/injection, schedule: Q04DX003 (ip), vehicle: DMSO 102 % of control | dose: 16.0 mg/kg/injection, schedule: Q04DX003 (ip), vehicle: DMSO 103 % of control | dose: 32.0 mg/kg/injection, schedule: Q04DX003 (ip), vehicle: DMSO 102 % of control | dose: 64.0 mg/kg/injection, schedule: Q04DX003 (ip), vehicle: DMSO 91 % of control

CO[C@H](/C(C)=C/C=C/C(C)=C/c1coc(C)n1)[C@H](C)[C@H]1C[C@@H](O)[C@@]2(C)O[C@H]2/C=C/[C@@H](C)[C@@H]2C[C@@H](CC(=O)O2)C[C@H]2O[C@@H]2C(=O)O1
inactive: dose: 0.12 mg/kg/injection, schedule: Q04DX003 (ip), vehicle: other 121 % of control | dose: 0.2 mg/kg/injection, schedule: Q04DX003 (ip), vehicle: other 108 % of control | dose: 0.55 mg/kg/injection, schedule: Q04DX003 (ip), vehicle: other 122 % of control | dose: 0.66 mg/kg/injection, schedule: Q01DX009 (ip), vehicle: other 93 % of control
active: dose: 0.09 mg/kg/injection, schedule: Q01DX009 (ip), vehicle: other 176 % of control | dose: 0.13 mg/kg/injection, schedule: Q01DX009 (ip), vehicle: other 180 % of control | dose: 0.2 mg/kg/injection, schedule: Q01DX009 (ip), vehicle: other 175 % of control | dose: 0.3 mg/kg/injection, schedule: Q01DX009 (ip), vehicle: other 152 % of control and 196 % of control | dose: 0.44 mg/kg/injection, schedule: Q01DX009 (ip), vehicle: other 162 % of control
